Data on 2 compounds can be found in patent US20220324770A1, “NITRIFICATION INHIBITORS” (The University of Melbourne, priority 2019, published 2022).

One series deals with South Johnstone soil. The experiment in a line: Soil thin-layer chromatography (TLC) leaching study, South Johnstone soil. Conditions: for Detected Inhibitor (%): South Johnstone soil TLC. It is filed as physicochemical. As to the method:
(§1) TLC plates were prepared based on methods described in the literature (Helling, C. S., Turner, B. C, Science 1968, 162, 562-563; Mohammad, A., Jabeen, N., JPC—Journal of Planar Chromatography—Modern TLC 2003, 16, 137-143). Masking tape (3 layers, ˜[…] total thickness) was used to outline three columns (4 cm W×12 cm H) on a glass TLC plate (20×20 cm). A slurry of freshly ground soil in distilled H2O (˜2:3 m/v) was then poured onto the prepared plate and spread evenly using a glass rod. Once even, the plate was dried overnight in an oven at 35° C. Careful removal of the masking tape afforded the TLC plate ready for sample application.
(§2) Samples of DMP (the active core of DMPP) or Compound 16 (˜1 mg) dissolved in acetone (100 μL) were pipetted in a straight line across the soil, 2 cm above the base of the plate. Application band thickness was kept under 0.5 cm. After 30 mins of drying time, the TLC plate was developed inside a glass developing chamber with distilled H2O (depth of 0.5 cm) until the solvent front reached the top of the soil (˜1 hr). […] The plate was then allowed to air dry overnight.
(§3) Once dry, the plate was divided into six horizontal bands corresponding to Rf values of: (1) <0.05 (baseline), (2) 0.05 to 0.25, (3) 0.25 to 0.45, (4) 0.45 to 0.65, (5) 0.65 to 0.85, and (6) 0.85 to 1. In sequence, soil in each band was carefully scraped off the glass backing and collected in vials. Special care was taken to avoid cross-contamination between soil of different bands, and the separate channels.
(§4) Individual soil bands collected from the TLC plate were extracted as follows: • 1. Addition of an aqueous solution of CaCl2/MgSO4 (0.01M and 0.45M respectively, 2 mL). • 2. Sonication for 5 minutes then manual shaking for 30 seconds. • 3. Addition of methyl-tert-butyl ether (MTBE, 2 mL) then manual shaking for 30 seconds. • 4. Sonication for 10 minutes then manual shaking for 30 seconds. • 5. Rested until soil began to settle, then frozen overnight at −20° C. • 6. After partial defrosting, the ethereal extract was filtered through nylon syringe filters (FilterBio®, 13 mm diameter, 0.45 µm pore size).
(§5) The filtered ethereal extracts (450 μL) were spiked with 50 μL of a standard solution of either cyclododecanone in MTBE (1.97 mg/mL, for DMP-treated samples) or cyclooctanone in MTBE (6.37 mg/mL, for 16-treated samples). Samples were then directly analysed by GC-MS (method: 70° C. for 5 mins, then ramp 10° C./min to 250° C., hold at 250° C. for 17 mins [total run time=40 minutes]) to analyse the presence or absence of the inhibitor in each soil band.
(§6) GC-MS peak areas calculated for the standards cyclooctanone (Rt=9.1 mins) and cyclododecanone (Rt=15.8 mins) were compared to those calculated for Compound 16 (Rt=13.9 mins) and DMP (Rt=7.6 mins) respectively, for each soil sample extract where inhibitor was detected as follows:
(§7) As each treatment was run in triplicate, mean values are reported for detected inhibitor percentages for each Rf band, with errors presented as the standard deviation.
(§8) Samples of the DCD (˜1 mg) dissolved in methanol (300 μL) were pipetted in a straight line across the soil, 2 cm above the base of the plate. Application band thickness was kept under 0.5 cm. After 30 mins of drying time, the TLC plate was developed inside a glass developing chamber in distilled H2O (depth of 0.5 cm) until the solvent front reached the top of the soil (˜1 hr). […] The plate was then allowed to air dry overnight.
(§9) Individual soil bands collected from the TLC plate were extracted as follows: • 1. Addition of methanol (2 mL). • 2. Manual shaking for 30 seconds following sonication for 15 minutes. • 3. Once soil began to settle, the methanolic extract was filtered through nylon syringe filters (FilterBio®, 13 mm diameter, 0.45 µm pore size). • 4. 300 μL of the methanolic extracts were evaporated under nitrogen flow, and then the residues was taken up in ultrapure acetonitrile (1 mL). • 5. […]

For a further series, the system named is Dahlen soil. The experiment in a line: Soil thin-layer chromatography (TLC) leaching study, Dahlen soil. The series is classed as physicochemical. As for the experimental part: as §1, §2, §3, §4, §5, §6, §7, §8, §9
The conditions of series [1]: ranging from no effect; cited from earlier work.

Take `CCCc1cn(CCC)nn1` [Compound 16, 1,4-dipropyl-1H-1,2,3-triazole]: the “Detected Inhibitor (%)” value with South Johnstone soil (Rf 0.05-0.25) amounted to 1 ± 1%; in the series on South Johnstone soil (Rf 0.25-0.45) it was 5 ± 6%; with South Johnstone soil (Rf 0.45-0.65), 34 ± 5%; in the series on South Johnstone soil (Rf 0.65-0.85), 49 ± 9%; in the series on South Johnstone soil (Rf 0.85-1), 11 ± 3%; in the series on Dahlen soil (Dahlen soil TLC, Rf 0.05-0.25), 3 ± 4%. Besides, the “Detected Inhibitor (%)” value in the series with Dahlen soil (Dahlen soil TLC, Rf 0.25-0.45) is 58 ± 14%; in the series with Dahlen soil (Dahlen soil TLC, Rf 0.45-0.65), 38 ± 16%; in the series with Dahlen soil (Dahlen soil TLC, Rf 0.65-0.85) it was 1 ± 1%. Moreover, in the series with South Johnstone soil (acidic soils), the “leaching tendency (conclusion)” value is listed as “lower-to-similar leaching tendencies to DCD”. In addition, the “Rf range in which the majority of the inhibitor was detected” value in the series on Dahlen soil (Dahlen soil TLC) is 0.25-0.45. In the series with Dahlen soil (neutral Dahlen soil), the “mobility in soil TLC” value is recorded as “reduced mobility compared to DMP”. Further, the “leachability (conclusion)” value in the series on Dahlen soil (neutral soils) was “lower leachability than DMP and DCD”.

As to `Cc1c[nH]nc1C.O=P(O)(O)O` [DMPP, 3,4-dimethylpyrazole phosphate, reference compound], the “inhibition in field studies for reducing leaching and N2O emissions” value in series [1] was no more than 70%.
